Earlier results in paper PMC3066546, “Development of modified nucleosides that have supremely high anti-HIV activity and low toxicity and prevent the emergence of resistant HIV mutants” (Proceedings of the Japan Academy. Series B, Physical and …, 2011).
pEC50: −log10 of the molar value. Like-named read-outs stand apart in the source and are kept apart here.

How the values were obtained:
HIV-1LAI = conditions: MTT assay, MT-4 cells
HIV = tested on: HIV; parameters: method as in PMID 7764216; conditions: Table 1; for pEC50: anti-HIV
[1] = cytotoxic concentration, Table 1

Row | Compound | pEC50 (HIV-1LAI; Table 2) | CC50 (MT-4 cells; Table 2) [µM] | other results
1 | N#C[C@]1(CO)O[C@@H](n2cnc3c(N)nc(N)nc32)C[C@@H]1O [C00004 2AA] | – | – | pEC50 (HIV-1LAI; Table 3): 9.10; CC50 (MT-4 cells; Table 3): 0.034 µM
2 | Cc1cn([C@H]2C[C@H](O)[C@@](C#N)(CO)O2)c(=O)[nH]c1=O [4′-C-cyanothymidine] | 8.70 | 1 | –
3 | CCC[C@]1(CO)O[C@@H](n2cc(C)c(=O)[nH]c2=O)C[C@@H]1O [4′-C-propylthymidine] | < 4.00 | > 100 | –
4 | C[C@@]1(CO)CC[C@H](n2ccc(N)nc2=O)O1 [C00003 Cy] | – | – | SI (CC50/EC50) (HIV): 1; pEC50 (HIV): 4.57; CC50 [1]: 27 µM
5 | C[C@@]1(CO)C=C[C@H](n2ccc(N)nc2=O)O1 [C00002 Cy] | – | – | pEC50 (HIV): 3.46; CC50 [1]: 350 µM
6 | Nc1ccn([C@H]2C[C@H](O)[C@](CO)(CF)O2)c(=O)n1 [4′-C-fluoromethyl-2′-deoxycytidine] | 8.17 | 0.12 | –
7 | CO[C@]1(CO)O[C@@H](n2cc(C)c(=O)[nH]c2=O)C[C@@H]1O [4′-C-methoxythymidine] | 5.07 | 200 | –
8 | Cc1cn([C@H]2CC[C@@](C)(CO)O2)c(=O)[nH]c1=O [C00003 Th] | – | – | SI (CC50/EC50) (HIV): ∼1; pEC50 (HIV): < 3.30; CC50 [1]: > 500 µM
9 | C[C@@]1(CO)CC[C@H](n2cnc3c(N)ncnc32)O1 [C00003 Ad] | – | – | SI (CC50/EC50) (HIV): 13; pEC50 (HIV): 4.52; CC50 [1]: 400 µM
10 | N#C[C@]1(CO)O[C@@H](n2cnc3c(N)ncnc32)C[C@@H]1O [C00004 A] | – | – | pEC50 (HIV-1LAI; Table 3): 7.29; CC50 (MT-4 cells; Table 3): 12 µM
11 | CC[C@]1(CO)O[C@@H](n2cc(C)c(=O)[nH]c2=O)C[C@@H]1O [4′-C-ethylthymidine] | < 3.40 | – | –
12 | [N-]=[N+]=N[C@]1(CO)O[C@@H](n2ccc(N)nc2=O)C[C@@H]1O [4′-C-azido-2′-deoxycytidine] | 8.40 | 0.21 | –
13 | [N-]=[N+]=N[C@]1(CO)O[C@@H](n2cnc3c(N)ncnc32)C[C@@H]1O [4′-C-azido-2′-deoxyadenosine] | 6.89 | 50 | –
14 | N#C[C@]1(CO)O[C@@H](n2ccc(N)nc2=O)C[C@@H]1O [4′-C-cyano-2′-deoxycytidine] | 8.92 | 0.17 | –
15 | N#C[C@]1(CO)O[C@@H](n2cnc3c(=O)[nH]c(N)nc32)C[C@@H]1O [C00004 G] | – | – | pEC50 (HIV-1LAI; Table 3): 9.73; CC50 (MT-4 cells; Table 3): 0.034 µM
16 | C[C@@]1(CO)C=C[C@H](n2cnc3c(N)ncnc32)O1 [C00002 Ad] | – | – | SI (CC50/EC50) (HIV): ∼1; pEC50 (HIV): < 3.30; CC50 [1]: > 500 µM
17 | Cc1cn([C@H]2C[C@H](O)[C@](CO)(N=[N+]=[N-])O2)c(=O)[nH]c1=O [4′-C-azidothymidine] | 8.00 | 8 | –
18 | C#C[C@]1(CO)O[C@@H](n2cc(C)c(=O)[nH]c2=O)C[C@@H]1O [4′-C-ethynylthymidine] | 6.08 | > 400 | –
19 | N#C[C@]1(CO)O[C@@H](n2cnc3c(O)ncnc32)C[C@@H]1O [C00004 I] | – | – | pEC50 (HIV-1LAI; Table 3): 7.29; CC50 (MT-4 cells; Table 3): 23 µM
20 | Cc1cn([C@H]2C[C@H](O)[C@](CO)(CN=[N+]=[N-])O2)c(=O)[nH]c1=O [4′-C-azidomethylthymidine] | 5.68 | 333 | –
21 | Cc1cn([C@H]2C[C@H](O)C(CO)(CO)O2)c(=O)[nH]c1=O [4′-C-hydroxymethylthymidine] | 5.15 | > 400 | –
22 | Cc1cn([C@H]2C=C[C@@](C)(CO)O2)c(=O)[nH]c1=O [C00002 Th] | – | – | SI (CC50/EC50) (HIV): 16; pEC50 (HIV): 4.68; CC50 [1]: 330 µM
23 | C=C[C@]1(CO)O[C@@H](n2cc(C)c(=O)[nH]c2=O)C[C@@H]1O [4′-C-vinylthymidine] | < 3.40 | > 400 | –
24 | C#C[C@]1(CO)O[C@@H](n2ccc(N)nc2=O)C[C@@H]1O [L-4′-C-ethynyl-2′-deoxycytidine] | < 3.40 | – | –
25 | C#C[C@]1(CO)O[C@@H](n2cc(C)c(=O)[nH]c2=O)[C@@H](O)[C@@H]1O [4′-C-ethynylarabinofuranosylthymine] | 3.92 | – | CC50 (MT-4 cells): > 400 µM
